Assay results as given in the NIST ThermoML archive (doi:10.1021/je060257y).
± gives the expanded uncertainty stated by the source.

Assay: molar heat capacity at constant pressure
Conditions: 101.33 kPa, Crystal

Compound	molar heat capacity at constant pressure (298.15 K) [J/K/mol]	molar heat capacity at constant pressure (303.15 K) [J/K/mol]	molar heat capacity at constant pressure (308.15 K) [J/K/mol]	molar heat capacity at constant pressure (313.15 K) [J/K/mol]	molar heat capacity at constant pressure (318.15 K) [J/K/mol]	molar heat capacity at constant pressure (323.15 K) [J/K/mol]	molar heat capacity at constant pressure (328.15 K) [J/K/mol]	molar heat capacity at constant pressure (333.15 K) [J/K/mol]	molar heat capacity at constant pressure (338.15 K) [J/K/mol]	molar heat capacity at constant pressure (343.15 K) [J/K/mol]
Cn1c2c(c(=O)n(C)c1=O)CCCCC2	314.5 ± 9.7	321.6 ± 10	329 ± 10	333.6 ± 10	341.1 ± 11	347.9 ± 11	353.3 ± 11	358.4 ± 11	363.2 ± 11	367.3 ± 11
Cc1cc(=O)n(C)c(=O)n1C [1,3,6-trimethyl-2,4(1H,3H)-pyrimidinedione]	212.6 ± 7.2	213.5 ± 7.2	217.1 ± 7.3	218.5 ± 7.4	219.8 ± 7.4	223.4 ± 7.5	228.3 ± 7.6	229 ± 7.6	236.5 ± 7.8	239.6 ± 7.9
Cn1ccc(=O)n(C)c1=O [1,3-dimethyl-2,4-(1H,3H)-pyrimidinedione]	182.5 ± 5.7	185.4 ± 5.7	188.7 ± 5.8	191.2 ± 5.9	193.8 ± 6	196.4 ± 6.1	199.1 ± 6.2	201 ± 6.2	203.3 ± 6.3	206.8 ± 6.4
Cn1c2c(c(=O)n(C)c1=O)CCCC2 [1,3-dimethyl-5,6,7,8-tetrahydroquinazoline-2,4(1H,3H)-dione]	282.9 ± 8.8	291.2 ± 9	296.2 ± 9.2	305.8 ± 9.5	310.9 ± 9.6	319.8 ± 9.9	–	–	–	–
Cn1c2c(c(=O)n(C)c1=O)CCC2 [1,3-dimethyl-5,6-trimethyleneuracil]	252.9 ± 7.8	258.1 ± 8	261.8 ± 8.1	–	–	–	–	–	–	–
Cc1cn(C)c(=O)[nH]c1=O [1,5-dimethyluracil]	187.6 ± 5.8	190 ± 5.9	190.3 ± 5.9	194.1 ± 6	194.8 ± 6	198.5 ± 6.2	199.2 ± 6.2	202 ± 6.3	203 ± 6.3	205.2 ± 6.4
Cc1cc(=O)[nH]c(=O)n1C [1,6-dimethyluracil]	188.1 ± 7	194.3 ± 7.2	197.9 ± 7.2	202.6 ± 7.3	206.8 ± 7.4	211 ± 7.5	217.9 ± 7.7	225.1 ± 7.9	233.1 ± 8	239.8 ± 8.2
Cn1ccc(=O)[nH]c1=O [1-methyl-2,4(1H,3H)-pyrimidinedione]	156.9 ± 4.9	167.2 ± 5.2	179.6 ± 5.6	190.9 ± 5.9	200.5 ± 6.2	211.1 ± 6.5	223 ± 6.9	235 ± 7.3	245.9 ± 7.6	256.1 ± 7.9
Cc1c(C)n(C)c(=O)n(C)c1=O [2,4(1H,3H)-pyrimidinedione, 1,3,5,6-tetramethyl-]	244.5 ± 7.9	248.8 ± 8	254 ± 8.1	256.5 ± 8.2	260.9 ± 8.3	266.7 ± 8.4	271.2 ± 8.6	276.6 ± 8.7	282.3 ± 8.8	291.5 ± 9.1
CCCc1cn(C)c(=O)n(C)c1=O [2,4(1H,3H)-pyrimidinedione, 1,3-dimethyl-5-propyl-]	302.7 ± 9.4	302.7 ± 9.4	302.8 ± 9.4	303 ± 9.4	306.2 ± 9.5	308.4 ± 9.6	–	–	–	–
CCCc1cc(=O)n(C)c(=O)n1C [2,4(1H,3H)-pyrimidinedione, 1,3-dimethyl-6-propyl-]	287.2 ± 10	288.8 ± 10	290.5 ± 10	292.2 ± 10	293.9 ± 10	303.9 ± 10	–	–	–	–
